The text below walks through data of patent EP3381905A1, “NOVEL ANTIVIRAL COMPOUNDS” (priority 2017, dated 2018).

The test system of series [1] is GFP expressing HAd-C5 vector. The series is described as follows: fluorescent plaque forming assay (adenoviral propagation / virus spread). The series is classed as cell-based, adenovirus.
Series [2] concerns MARV VP40 with the late domain motif of Ebola virus (PTAPPEY) VP40 (VP40ELD). The series is classed as cell-based, Marburg virus.
The next series deals with HAd-C5-wt virus. The series is described as follows: adenoviral early gene expression by real-time PCR. The series is classed as cell-based, adenovirus. To be noted: U2OS cells, 5 µM, 4 hours post-infection, vs vehicle.
The test system of a further series is HAd-C5. The series is described as follows: adenovirus genome nuclear import (nuclear protein VII staining, confocal microscopy). To be noted: U2OS cells, 5 µM, 2500 pp/cell, 2 hours post-infection, vs DMSO. The series is classed as cell-based.
In a further series the test system is U2OS cells. The series is described as follows: cytotoxicity, CellTiter-Glo Luminescent Cell Viability Assay. As to conditions: for cytotoxicity profile (normalized cell viability): 250 nM to 50 µM, 36 h (Figure 7).

As for `Nc1ccn(C[C@@H](CO)OCP(=O)(O)O)c(=O)n1` [Cidofovir], in series [1] (10 µM and 20 µM (Example 8, Figure 6)), the “inhibition of adenoviral propagation (plaque size)” value is given as “did not show significant inhibition”.
As for `Clc1ccc(CSC(Cn2ccnc2)c2ccc(Cl)cc2Cl)cc1` (stereo not shown) [Sulconazole], in series [1] (5 µM, HEK293 cells, 0.1 pp/cell HAd-C5-GFP, six days after infection, vs DMSO (Example 3, Figure 1, P<0.0001)), the “plaque size (adenovirus virus propagation)” value is “significant reduced plaque size”. Further, the “VP40 VLP release” value in series [2] was “inhibit”. Further, in the series on HAd-C5-wt virus, the “early viral genes expression (E1A, E1B, E4 orf6/7)” value is “significant reduction of early viral genes expression”. For the same compound, the “nuclear accumulation of viral genomes (protein VII)” value in the series on HAd-C5 is “significantly reduces the nuclear accumulation of viral genomes”. In the series on MARV, the “reduction of MARV titers (TCID50)” value is recorded as 1-2 log. Moreover, the cytotoxicity entry with U2OS cells (5 µM, 36 h) is “not cytotoxic”.
As to `Clc1ccc(-c2ccc(Cn3ccnc3)c(-c3ccc(Cl)cc3Cl)c2)c(Cl)c1` [CT2-10, 1-((2,2",4,4"-Tetrachloro-[1,1':3',1"-terphenyl]-4'-yl)methyl)-1H-imidazole], the “cytotoxicity profile (normalized cell viability)” value in the series with U2OS cells is given as “cytotoxicity profiles similar to Sulconazole”.
Still for that read-out and setting: for `Clc1ccc(-c2cc(-n3ccnc3)c(-c3ccc(Cl)cc3Cl)o2)c(Cl)c1` [CT2-13, 1-(2,5-bis(2,4-Dichlorophenyl)furan-3-yl)-1H-imidazole] the value was “cytotoxicity profiles similar to Sulconazole”; for `Clc1ccc(CO/N=C(\Cn2ccnc2)c2ccc(Cl)cc2Cl)c(Cl)c1` [Oxiconazole], “cytotoxicity profiles similar to Sulconazole”.
